Assay results: patent US6515159B2, “S,S-ethylenediamine-N,N′-disuccinic acid iron alkali salt and a process for production thereof” (Mitsubishi Rayon Co., Ltd., priority 1997, dated 2003)

Columns and labels:
[1] = storage stability of 40% aqueous solution (dissolution state after storage); type: physicochemical; conditions: 40% aqueous solution stored at 50° C. for 1 week, then diluted to 1%
Description: Each of the powders obtained in Examples 1, 10 and 13 and Comparative Examples 1 and 3 was dissolved to obtain a 40% aqueous solution. The solution was stored at 50° C. for 1 week and then diluted to 1% and the dissolution state of the resulting diluted solution was observed.

SMILES | dissolution state of the resulting diluted solution [1] | pH of aqueous solution
O=C([O-])C[C@H](NCCN[C@@H](CC(=O)[O-])C(=O)[O-])C(=O)[O-].[Fe+3].[Na+] [Example 1, S,S-ethylenediamine-N,N′-disuccinic acid iron sodium salt] | no insoluble material was found | –
O=C(O)C[C@H](NCCN[C@@H](CC(=O)O)C(=O)O)C(=O)O [S,S-ethylenediamine-N,N′-disuccinic acid] | – | ~2
